Results from ChEMBL document CHEMBL4011590, “Structure-activity relationship studies on 3,5-dinitrophenyl tetrazoles as antitubercular agents” (Eur J Med Chem, 2017).
≈ marks a conversion by molar mass, not a printed value.

How the values were obtained:
Type in all cases: functional
[1] = test system: Mycobacterium tuberculosis; test: Antimycobacterial activity against clinical isolates of multidrug resistant/extensively drug resistant Mycobacterium tuberculosis Praha 4 after 21 days by micromethod; conditions: Praha 4, 504 h
[2] = test system: Mycobacterium tuberculosis; test: Antimycobacterial activity against clinical isolates of multidrug resistant/extensively drug resistant Mycobacterium tuberculosis Praha 4 after 14 days by micromethod; conditions: Praha 4, 336 h
[3] = test system: Mycobacterium tuberculosis; test: Antimycobacterial activity against clinical isolates of multidrug resistant/extensively drug resistant Mycobacterium tuberculosis 8666/2010 after 14 days by micromethod; conditions: 8666/2010, 336 h
[4] = test system: Mycobacterium tuberculosis; test: Antimycobacterial activity against clinical isolates of multidrug resistant/extensively drug resistant Mycobacterium tuberculosis 8666/2010 after 21 days by micromethod; conditions: 8666/2010, 504 h
[5] = test system: Mycobacterium tuberculosis; test: Antimycobacterial activity against clinical isolates of multidrug resistant/extensively drug resistant Mycobacterium tuberculosis 9449/2007 after 21 days by micromethod; conditions: 9449/2007, 504 h
[6] = test system: Mycobacterium tuberculosis; test: Antimycobacterial activity against clinical isolates of multidrug resistant/extensively drug resistant Mycobacterium tuberculosis 7357/1998 after 21 days by micromethod; conditions: 7357/1998, 504 h
[7] = test system: Mycobacterium tuberculosis; test: Antimycobacterial activity against clinical isolates of multidrug resistant/extensively drug resistant Mycobacterium tuberculosis 9449/2007 after 14 days by micromethod; conditions: 9449/2007, 336 h
[8] = test system: Mycobacterium tuberculosis; test: Antimycobacterial activity against clinical isolates of multidrug resistant/extensively drug resistant Mycobacterium tuberculosis 7357/1998 after 14 days by micromethod; conditions: 7357/1998, 336 h
[9] = test system: Mycobacterium tuberculosis; test: Antimycobacterial activity against clinical isolates of multidrug resistant/extensively drug resistant Mycobacterium tuberculosis Praha 131 after 14 days by micromethod; conditions: Praha 131, 336 h
[10] = test system: Mycobacterium tuberculosis; test: Antimycobacterial activity against clinical isolates of multidrug resistant/extensively drug resistant Mycobacterium tuberculosis Praha 1 after 14 days by micromethod; conditions: Praha 1, 336 h
[11] = test system: Mycobacterium tuberculosis; test: Antimycobacterial activity against clinical isolates of multidrug resistant/extensively drug resistant Mycobacterium tuberculosis 234/2005 after 14 days by micromethod; conditions: 234/2005, 336 h
[12] = test system: Mycobacterium tuberculosis; test: Antimycobacterial activity against clinical isolates of multidrug resistant/extensively drug resistant Mycobacterium tuberculosis Praha 131 after 21 days by micromethod; conditions: Praha 131, 504 h
[13] = test system: Mycobacterium tuberculosis; test: Antimycobacterial activity against clinical isolates of multidrug resistant/extensively drug resistant Mycobacterium tuberculosis 234/2005 after 21 days by micromethod; conditions: 234/2005, 504 h
[14] = test system: Mycobacterium tuberculosis; test: Antimycobacterial activity against clinical isolates of multidrug resistant/extensively drug resistant Mycobacterium tuberculosis Praha 1 after 21 days by micromethod; conditions: Praha 1, 504 h

| Compound | MIC [1] | MIC [2] | MIC [3] | MIC [4] | MIC [5] | MIC [6] | MIC [7] | MIC [8] | MIC [9] | MIC [10] | MIC [11] | MIC [12] | MIC [13] | MIC [14] |
| --- | --- | --- | --- | --- | --- | --- | --- | --- | --- | --- | --- | --- | --- | --- |
| O=[N+]([O-])c1cc(-c2nnn(Cc3cccc(Br)c3)n2)cc([N+](=O)[O-])c1 | 1 µM (≈ 0.405 µg/mL) | 0.5 µM (≈ 0.203 µg/mL) | 0.25 µM (≈ 0.101 µg/mL) | 0.5 µM (≈ 0.203 µg/mL) | 0.5 µM (≈ 0.203 µg/mL) | 0.5 µM (≈ 0.203 µg/mL) | 0.25 µM (≈ 0.101 µg/mL) | 0.5 µM (≈ 0.203 µg/mL) | 0.5 µM (≈ 0.203 µg/mL) | 0.5 µM (≈ 0.203 µg/mL) | 0.25 µM (≈ 0.101 µg/mL) | 1 µM (≈ 0.405 µg/mL) | 0.5 µM (≈ 0.203 µg/mL) | 0.5 µM (≈ 0.203 µg/mL) |
| COc1ccc(Cn2nnc(-c3cc([N+](=O)[O-])cc([N+](=O)[O-])c3)n2)cc1 | 0.03 µM (≈ 0.0107 µg/mL) | 0.03 µM (≈ 0.0107 µg/mL) | 0.03 µM (≈ 0.0107 µg/mL) | 0.03 µM (≈ 0.0107 µg/mL) | 0.03 µM (≈ 0.0107 µg/mL) | 0.03 µM (≈ 0.0107 µg/mL) | 0.03 µM (≈ 0.0107 µg/mL) | 0.03 µM (≈ 0.0107 µg/mL) | 0.03 µM (≈ 0.0107 µg/mL) | 0.03 µM (≈ 0.0107 µg/mL) | 0.03 µM (≈ 0.0107 µg/mL) | 0.03 µM (≈ 0.0107 µg/mL) | 0.06 µM (≈ 0.0214 µg/mL) | 0.03 µM (≈ 0.0107 µg/mL) |
| Cc1ccc(Cn2nnc(-c3cc([N+](=O)[O-])cc([N+](=O)[O-])c3)n2)cc1 | 0.12 µM (≈ 0.0408 µg/mL) | 0.12 µM (≈ 0.0408 µg/mL) | 0.12 µM (≈ 0.0408 µg/mL) | 0.12 µM (≈ 0.0408 µg/mL) | 0.12 µM (≈ 0.0408 µg/mL) | 0.12 µM (≈ 0.0408 µg/mL) | 0.12 µM (≈ 0.0408 µg/mL) | 0.12 µM (≈ 0.0408 µg/mL) | 0.12 µM (≈ 0.0408 µg/mL) | 0.12 µM (≈ 0.0408 µg/mL) | 0.12 µM (≈ 0.0408 µg/mL) | 0.12 µM (≈ 0.0408 µg/mL) | 0.12 µM (≈ 0.0408 µg/mL) | 0.25 µM (≈ 0.0851 µg/mL) |
| O=[N+]([O-])c1cc(-c2nnn(Cc3ccc(F)cc3)n2)cc([N+](=O)[O-])c1 | 1 µM (≈ 0.344 µg/mL) | 0.5 µM (≈ 0.172 µg/mL) | 0.5 µM (≈ 0.172 µg/mL) | 0.5 µM (≈ 0.172 µg/mL) | 0.5 µM (≈ 0.172 µg/mL) | 0.5 µM (≈ 0.172 µg/mL) | 0.25 µM (≈ 0.0861 µg/mL) | 0.5 µM (≈ 0.172 µg/mL) | 0.5 µM (≈ 0.172 µg/mL) | 1 µM (≈ 0.344 µg/mL) | 0.5 µM (≈ 0.172 µg/mL) | 1 µM (≈ 0.344 µg/mL) | 1 µM (≈ 0.344 µg/mL) | 1 µM (≈ 0.344 µg/mL) |
| O=[N+]([O-])c1cc(-c2nnn(CSc3nnnn3-c3ccc(Br)cc3)n2)cc([N+](=O)[O-])c1 | 0.03 µM (≈ 0.0152 µg/mL) | 0.03 µM (≈ 0.0152 µg/mL) |  |  | 0.03 µM (≈ 0.0152 µg/mL) | 0.03 µM (≈ 0.0152 µg/mL) | 0.03 µM (≈ 0.0152 µg/mL) | 0.03 µM (≈ 0.0152 µg/mL) | 0.03 µM (≈ 0.0152 µg/mL) | 0.03 µM (≈ 0.0152 µg/mL) | 0.03 µM (≈ 0.0152 µg/mL) | 0.03 µM (≈ 0.0152 µg/mL) | 0.03 µM (≈ 0.0152 µg/mL) | 0.03 µM (≈ 0.0152 µg/mL) |
| O=[N+]([O-])c1cc(-c2nnn(Cc3ccccc3)n2)cc([N+](=O)[O-])c1 | 1 µM (≈ 0.326 µg/mL) | 1 µM (≈ 0.326 µg/mL) |  |  | 1 µM (≈ 0.326 µg/mL) | 1 µM (≈ 0.326 µg/mL) | 1 µM (≈ 0.326 µg/mL) | 1 µM (≈ 0.326 µg/mL) | 1 µM (≈ 0.326 µg/mL) | 1 µM (≈ 0.326 µg/mL) | 1 µM (≈ 0.326 µg/mL) | 1 µM (≈ 0.326 µg/mL) | 1 µM (≈ 0.326 µg/mL) | 1 µM (≈ 0.326 µg/mL) |
| O=[N+]([O-])c1cc(-c2nnn(CCCSc3nnnn3-c3ccc(Br)cc3)n2)cc([N+](=O)[O-])c1 | 0.25 µM (≈ 0.133 µg/mL) | 0.25 µM (≈ 0.133 µg/mL) |  |  | 0.25 µM (≈ 0.133 µg/mL) | 0.25 µM (≈ 0.133 µg/mL) | 0.25 µM (≈ 0.133 µg/mL) | 0.25 µM (≈ 0.133 µg/mL) | 0.25 µM (≈ 0.133 µg/mL) | 0.25 µM (≈ 0.133 µg/mL) | 0.25 µM (≈ 0.133 µg/mL) | 0.25 µM (≈ 0.133 µg/mL) | 0.25 µM (≈ 0.133 µg/mL) | 0.25 µM (≈ 0.133 µg/mL) |
| O=[N+]([O-])c1cc(-c2nnn(CCCCSc3nnnn3-c3ccc(Br)cc3)n2)cc([N+](=O)[O-])c1 | 0.25 µM (≈ 0.137 µg/mL) | 0.25 µM (≈ 0.137 µg/mL) |  |  | 0.5 µM (≈ 0.274 µg/mL) | 0.25 µM (≈ 0.137 µg/mL) | 0.25 µM (≈ 0.137 µg/mL) | 0.25 µM (≈ 0.137 µg/mL) | 0.25 µM (≈ 0.137 µg/mL) | 0.25 µM (≈ 0.137 µg/mL) | 0.25 µM (≈ 0.137 µg/mL) | 0.25 µM (≈ 0.137 µg/mL) | 0.25 µM (≈ 0.137 µg/mL) | 0.25 µM (≈ 0.137 µg/mL) |
| O=[N+]([O-])c1cc(-c2nnn(Cc3cccc(F)c3)n2)cc([N+](=O)[O-])c1 | 1 µM (≈ 0.344 µg/mL) | 1 µM (≈ 0.344 µg/mL) | 1 µM (≈ 0.344 µg/mL) | 1 µM (≈ 0.344 µg/mL) | 1 µM (≈ 0.344 µg/mL) | 1 µM (≈ 0.344 µg/mL) | 1 µM (≈ 0.344 µg/mL) | 1 µM (≈ 0.344 µg/mL) | 1 µM (≈ 0.344 µg/mL) | 1 µM (≈ 0.344 µg/mL) | 1 µM (≈ 0.344 µg/mL) | 1 µM (≈ 0.344 µg/mL) | 1 µM (≈ 0.344 µg/mL) | 1 µM (≈ 0.344 µg/mL) |
| O=[N+]([O-])c1cc(-c2nnn(CSc3nnnn3-c3ccc(Cl)c(Cl)c3)n2)cc([N+](=O)[O-])c1 | 0.03 µM (≈ 0.0149 µg/mL) | 0.03 µM (≈ 0.0149 µg/mL) |  |  | 0.03 µM (≈ 0.0149 µg/mL) | 0.03 µM (≈ 0.0149 µg/mL) | 0.03 µM (≈ 0.0149 µg/mL) | 0.03 µM (≈ 0.0149 µg/mL) | 0.03 µM (≈ 0.0149 µg/mL) | 0.03 µM (≈ 0.0149 µg/mL) | 0.03 µM (≈ 0.0149 µg/mL) | 0.03 µM (≈ 0.0149 µg/mL) | 0.03 µM (≈ 0.0149 µg/mL) | 0.03 µM (≈ 0.0149 µg/mL) |
| COc1cccc(-n2nnnc2SCn2nnc(-c3cc([N+](=O)[O-])cc([N+](=O)[O-])c3)n2)c1 | 0.03 µM (≈ 0.0137 µg/mL) | 0.03 µM (≈ 0.0137 µg/mL) |  |  | 0.06 µM (≈ 0.0274 µg/mL) | 0.03 µM (≈ 0.0137 µg/mL) | 0.03 µM (≈ 0.0137 µg/mL) | 0.03 µM (≈ 0.0137 µg/mL) | 0.03 µM (≈ 0.0137 µg/mL) | 0.03 µM (≈ 0.0137 µg/mL) | 0.03 µM (≈ 0.0137 µg/mL) | 0.03 µM (≈ 0.0137 µg/mL) | 0.03 µM (≈ 0.0137 µg/mL) | 0.03 µM (≈ 0.0137 µg/mL) |
| O=[N+]([O-])c1cc(-c2nnn(CSc3nnnn3-c3ccc(Cl)cc3)n2)cc([N+](=O)[O-])c1 | 0.03 µM (≈ 0.0138 µg/mL) | 0.03 µM (≈ 0.0138 µg/mL) |  |  | 0.03 µM (≈ 0.0138 µg/mL) | 0.03 µM (≈ 0.0138 µg/mL) | 0.03 µM (≈ 0.0138 µg/mL) | 0.03 µM (≈ 0.0138 µg/mL) | 0.03 µM (≈ 0.0138 µg/mL) | 0.03 µM (≈ 0.0138 µg/mL) | 0.03 µM (≈ 0.0138 µg/mL) | 0.03 µM (≈ 0.0138 µg/mL) | 0.06 µM (≈ 0.0276 µg/mL) | 0.06 µM (≈ 0.0276 µg/mL) |
